Data from ChEMBL document CHEMBL1131710, “N-substituted-3-arylpyrrolidines: potent and selective ligands at serotonin 1A receptor” (Bioorg Med Chem Lett, 1999).

How the values were obtained:
Format in all cases: tissue-based
[1] = biological target: T1, 5-hydroxytryptamine receptor 1A (Rattus norvegicus, UniProt P19327); assay: In vitro binding affinity against 5-HT1A receptor of rat hippocampus using [3H]8-OH-DPAT
T1 sequence (P19327 whole entry): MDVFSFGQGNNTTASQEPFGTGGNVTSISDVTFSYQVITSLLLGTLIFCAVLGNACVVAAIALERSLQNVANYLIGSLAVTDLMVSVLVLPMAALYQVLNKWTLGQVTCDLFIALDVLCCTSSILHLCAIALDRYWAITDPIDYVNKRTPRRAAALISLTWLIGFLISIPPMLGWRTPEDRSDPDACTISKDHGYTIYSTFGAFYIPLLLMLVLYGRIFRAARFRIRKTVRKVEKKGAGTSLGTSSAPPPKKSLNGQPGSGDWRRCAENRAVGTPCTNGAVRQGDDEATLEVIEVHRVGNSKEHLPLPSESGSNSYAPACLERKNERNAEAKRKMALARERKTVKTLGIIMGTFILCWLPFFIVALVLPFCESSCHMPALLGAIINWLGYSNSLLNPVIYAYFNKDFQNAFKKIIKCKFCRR

D(1A) dopamine receptor = D(1A) dopamine receptor (Rattus norvegicus, UniProt P18901); assay: In vitro binding affinity against Dopamine receptor D1 of rat striatum using [3H]SCH-23390
Chain of D(1A) dopamine receptor (P18901 whole entry): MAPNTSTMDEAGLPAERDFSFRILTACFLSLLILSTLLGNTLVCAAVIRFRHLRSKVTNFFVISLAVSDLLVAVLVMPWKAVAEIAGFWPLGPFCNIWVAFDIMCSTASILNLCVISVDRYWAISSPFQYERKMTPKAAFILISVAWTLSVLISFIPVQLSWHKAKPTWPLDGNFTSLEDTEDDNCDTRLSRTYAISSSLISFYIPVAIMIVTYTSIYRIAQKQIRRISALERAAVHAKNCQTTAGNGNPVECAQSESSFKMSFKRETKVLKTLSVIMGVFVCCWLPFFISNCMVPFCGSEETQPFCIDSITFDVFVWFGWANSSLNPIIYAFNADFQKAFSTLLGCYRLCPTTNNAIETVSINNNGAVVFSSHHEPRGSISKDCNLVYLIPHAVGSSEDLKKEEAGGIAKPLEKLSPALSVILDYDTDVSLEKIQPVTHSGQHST

D(2) dopamine receptor = D(2) dopamine receptor (Rattus norvegicus, UniProt P61169); assay: In vitro binding affinity against Dopamine receptor D2 of rat striatum using [3H]raclopride
Chain of D(2) dopamine receptor (P61169 whole entry): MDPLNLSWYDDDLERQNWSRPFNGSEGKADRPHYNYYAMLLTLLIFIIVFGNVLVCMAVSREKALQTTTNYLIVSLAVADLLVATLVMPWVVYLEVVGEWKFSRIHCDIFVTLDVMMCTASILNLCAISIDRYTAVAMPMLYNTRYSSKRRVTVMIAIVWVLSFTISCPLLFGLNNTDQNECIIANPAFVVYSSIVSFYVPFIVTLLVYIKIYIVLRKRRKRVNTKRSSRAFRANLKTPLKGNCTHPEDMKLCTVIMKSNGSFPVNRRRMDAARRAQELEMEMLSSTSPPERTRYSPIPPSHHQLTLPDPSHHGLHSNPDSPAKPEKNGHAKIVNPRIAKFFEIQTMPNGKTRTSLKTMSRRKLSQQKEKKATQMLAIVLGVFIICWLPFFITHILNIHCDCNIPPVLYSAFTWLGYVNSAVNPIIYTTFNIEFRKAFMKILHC

[2] = biological target: T2, Adrenergic receptor alpha-2 (Rattus norvegicus, UniProt P22086+P19328+P22909); assay: In vitro binding affinity against Alpha-2 adrenergic receptor of rat cerebral cortex using [3H]RX-821002
T2 sequence (P22086 whole entry): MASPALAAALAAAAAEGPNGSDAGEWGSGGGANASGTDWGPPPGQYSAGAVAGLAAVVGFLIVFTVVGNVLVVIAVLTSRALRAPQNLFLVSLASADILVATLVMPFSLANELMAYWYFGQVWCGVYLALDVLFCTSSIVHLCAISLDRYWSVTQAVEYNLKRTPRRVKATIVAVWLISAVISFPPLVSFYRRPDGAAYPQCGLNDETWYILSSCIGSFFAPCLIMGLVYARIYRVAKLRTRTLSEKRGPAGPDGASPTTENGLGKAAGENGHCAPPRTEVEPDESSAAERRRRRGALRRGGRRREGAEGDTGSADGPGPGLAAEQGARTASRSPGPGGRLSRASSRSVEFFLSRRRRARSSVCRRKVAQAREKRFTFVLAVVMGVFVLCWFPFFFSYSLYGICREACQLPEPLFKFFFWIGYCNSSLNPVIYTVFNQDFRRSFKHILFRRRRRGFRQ
T2 sequence (P19328 whole entry): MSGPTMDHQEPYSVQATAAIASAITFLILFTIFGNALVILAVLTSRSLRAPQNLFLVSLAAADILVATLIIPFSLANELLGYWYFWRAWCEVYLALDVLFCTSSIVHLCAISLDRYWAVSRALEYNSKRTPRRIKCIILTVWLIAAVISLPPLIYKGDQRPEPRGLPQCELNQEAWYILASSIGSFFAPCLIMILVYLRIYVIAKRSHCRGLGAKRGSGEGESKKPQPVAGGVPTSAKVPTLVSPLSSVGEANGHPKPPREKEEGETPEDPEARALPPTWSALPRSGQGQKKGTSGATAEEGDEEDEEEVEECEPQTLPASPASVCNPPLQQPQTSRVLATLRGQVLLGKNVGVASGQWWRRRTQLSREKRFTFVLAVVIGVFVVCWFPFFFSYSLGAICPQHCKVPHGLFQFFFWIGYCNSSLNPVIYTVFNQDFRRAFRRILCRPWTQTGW
T2 sequence (P22909 whole entry): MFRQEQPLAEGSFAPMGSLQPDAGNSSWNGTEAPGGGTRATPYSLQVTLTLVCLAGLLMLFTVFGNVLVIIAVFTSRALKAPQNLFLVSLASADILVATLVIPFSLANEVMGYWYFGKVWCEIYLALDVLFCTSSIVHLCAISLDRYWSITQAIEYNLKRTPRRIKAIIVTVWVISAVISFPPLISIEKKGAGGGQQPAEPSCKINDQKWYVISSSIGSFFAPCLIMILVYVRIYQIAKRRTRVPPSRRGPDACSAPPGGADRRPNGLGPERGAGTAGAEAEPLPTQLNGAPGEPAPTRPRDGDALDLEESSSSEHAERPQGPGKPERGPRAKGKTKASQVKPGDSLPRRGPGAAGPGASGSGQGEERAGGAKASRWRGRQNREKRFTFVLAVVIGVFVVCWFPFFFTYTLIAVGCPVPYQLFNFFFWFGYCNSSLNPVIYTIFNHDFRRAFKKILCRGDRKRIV

[3] = biological target: 5-hydroxytryptamine receptor 2A (Rattus norvegicus, UniProt P14842); assay: In vitro binding affinity against 5-HT2A receptor of rat cerebral cortex using [3H]ketanserin
Chain of 5-hydroxytryptamine receptor 2A (P14842 whole entry): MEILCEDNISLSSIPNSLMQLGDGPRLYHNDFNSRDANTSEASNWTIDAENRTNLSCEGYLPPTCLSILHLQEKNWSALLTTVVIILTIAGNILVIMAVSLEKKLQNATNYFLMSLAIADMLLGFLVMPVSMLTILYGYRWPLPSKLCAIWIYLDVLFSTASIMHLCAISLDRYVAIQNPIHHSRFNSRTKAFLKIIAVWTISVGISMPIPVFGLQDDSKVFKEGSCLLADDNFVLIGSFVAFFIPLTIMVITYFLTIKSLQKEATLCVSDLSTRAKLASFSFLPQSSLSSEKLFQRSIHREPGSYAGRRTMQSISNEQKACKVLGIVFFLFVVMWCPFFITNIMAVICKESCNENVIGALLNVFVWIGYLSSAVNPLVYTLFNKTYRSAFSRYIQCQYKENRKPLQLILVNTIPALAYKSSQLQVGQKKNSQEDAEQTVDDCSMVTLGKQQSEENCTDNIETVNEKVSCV

SMILES	Ki [1]	Ki (D(1A) dopamine receptor)	Ki (D(2) dopamine receptor)	Ki [2]	Ki [3]
O=C1c2ccccc2CN1CCCCN1CCC(c2ccccc2)C1 (stereo not given)	11.5 nM	1.95 µM	77 nM	11 nM	46 nM
O=C1c2ccccc2S(=O)(=O)N1CCCCN1CCC(c2ccccc2)C1 (stereo not given)	2.7 nM	12.5 µM	195 nM	16 nM	34 nM
O=C1c2ccccc2CN1CCCCN1CCC(c2ccc(Cl)cc2)C1 (stereo not given)	30.4 nM	1.62 µM	185 nM	12 nM	184 nM
O=C1c2ccccc2S(=O)(=O)N1CCCCN1CCC(c2ccc(Cl)cc2)C1 (stereo not given)	2.6 nM	1.57 µM	327 nM	56 nM	232 nM
O=C1c2ccccc2S(=O)(=O)N1CCCCN1CCC(c2ccc(F)cc2)C1 (stereo not given)	4.2 nM	6.67 µM	263 nM	334 nM	> 367 nM

The remaining lines, values ahead:

Ki [1]	Ki (D(1A) dopamine receptor)	Ki (D(2) dopamine receptor)	Ki [2]	Ki [3]	SMILES
15.3 nM	37.6 µM	334 nM	44 nM	46 nM	O=C(c1cccc(CN2CCC(c3ccc(Cl)cc3)C2)c1)N1CCCCC1 (stereo not given)
30.6 nM	88.1 µM	783 nM	24 nM	320 nM	O=C(c1cccc(CN2CCC(c3ccccc3)C2)c1)N1CCCCC1 (stereo not given)
